The text below walks through data of patent publication US10864238B2, “Composition containing Poria cocos peel extract for treating neurodegenerative disorders” (NeuroBo Pharmaceuticals, Inc., priority 2014, dated 2020).

One test deals with human Tau [pS199]. The test can be described thus: Phosphorylated tau in neuronal cell line (ELISA). As to conditions: 10 ug/ml; SH-SY5Y; FIG. 11. It counts as cell-based. On the procedure: Phosphorylated tau levels were measured in order to confirm the inhibitory effect of Poria cocos peel extracts on tau hyper-phosphorylation. SH-SY5Y cells (1×10^6 cells/well) were seeded in 6-well culture plates and cultured in DMEM/F12 (Dulbecco's modified Eagle's medium) medium containing 10% FBS (fetal bovine serum) for 48 hours. After 5 days of differentiation using DMEM/F12 medium containing 10 μM retinoic acid and 3% FBS, after 6 hours of treatment with the Poria cocos peel extracts (10 or 100 ug/mL), Aβ42 was treated and cultured for a total of 48 hours. After cell lysis using RIPA buffer, the protein content was quantitated with BCA reagent purchased from Pierce. Phosphorylated tau was measured using human Tau [pS199] enzyme-linked immunosorbent assay (ELISA) KIT purchased from Invitrogen.
A general note: An ELISA detects its analyte on a solid surface through an enzyme-linked reagent.

The next test has as its system beta-nerve growth factor. The test can be described thus: NGF level measurement in nerve cell line (ELISA). It counts as cell-based, human. To be noted: 10 ug/mL; SH-SY5Y; FIG. 12. On the procedure:
NGF levels were measured in order to determine the mechanism of cognitive improvement of the Poria cocos peel extracts. SH-SY5Y cells (1×10^6 cells/well) were inoculated on 6-well culture plates and cultured in DMEM/F12 (Dulbecco's modified Eagle's medium) medium containing 10% fetal bovine serum for 48 hours. After 5 days of differentiation using DMEM/F12 medium containing 10 μM retinoic acid and 3% FBS, the cells were treated with Poria cocos peel extracts (10 or 100 ug/ml). Cells were lysed using RIPA buffer, and protein content was quantitated with BCA reagent purchased from Pierce. NGF levels were measured using a beta-nerve growth factor human enzyme-linked immunosorbent assay (ELISA) KIT purchased from Abcam.

In the case of `COc1cc2c(cc1OC)C(=O)C(CC1CCN(Cc3ccccc3)CC1)C2` (centres unmarked) [Donepezil], in the test with human Tau [pS199], the “tau phosphorylation induced by Aβ42” value is given as “did not show the inhibitory effect on tau phosphorylation”. In the test on beta-nerve growth factor, the NGF production result is “did not show NGF-related efficacy”.
